25 compounds from patent publication US9707233B2, “Heterocyclylamines as PI3K inhibitors” (Incyte Corporation, priority 2011, dated 2017) can be followed below.

Broadly, the IC50 is the point on the concentration scale where inhibition reaches its midpoint.

The target in this test is PI3Kδ (p110δ/p85α) (Homo sapiens (Human), UniProt O00329). Nature of the test: PI3Kδ scintillation proximity assay (Example A3). The conditions noted are these: 20 μM ATP, 20 μM PIP2, 4 nM PI3Kδ; read-out: PI3Kδ SPA IC50. In kind it is biochemical. An outline of the steps: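 Human PI3Kδ (p110δ/p85α, 4 nM) with 20 μM PIP2 and 20 μM ATP plus [γ-33P]ATP in 20 mM MOPS pH 6.7, 10 mM MgCl2, 5 mM DTT, 0.03% CHAPS, 0.5% DMSO, room temperature. Reaction stopped with EDTA/excess ATP; product captured on WGA SPA beads and counted. IC50 from percent control activity vs log inhibitor.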
In general terms: SPA uses beads or plates that emit light when radiolabelled molecules are held near them.

PI3Kδ (p110δ/p85α), sequence (O00329 whole entry): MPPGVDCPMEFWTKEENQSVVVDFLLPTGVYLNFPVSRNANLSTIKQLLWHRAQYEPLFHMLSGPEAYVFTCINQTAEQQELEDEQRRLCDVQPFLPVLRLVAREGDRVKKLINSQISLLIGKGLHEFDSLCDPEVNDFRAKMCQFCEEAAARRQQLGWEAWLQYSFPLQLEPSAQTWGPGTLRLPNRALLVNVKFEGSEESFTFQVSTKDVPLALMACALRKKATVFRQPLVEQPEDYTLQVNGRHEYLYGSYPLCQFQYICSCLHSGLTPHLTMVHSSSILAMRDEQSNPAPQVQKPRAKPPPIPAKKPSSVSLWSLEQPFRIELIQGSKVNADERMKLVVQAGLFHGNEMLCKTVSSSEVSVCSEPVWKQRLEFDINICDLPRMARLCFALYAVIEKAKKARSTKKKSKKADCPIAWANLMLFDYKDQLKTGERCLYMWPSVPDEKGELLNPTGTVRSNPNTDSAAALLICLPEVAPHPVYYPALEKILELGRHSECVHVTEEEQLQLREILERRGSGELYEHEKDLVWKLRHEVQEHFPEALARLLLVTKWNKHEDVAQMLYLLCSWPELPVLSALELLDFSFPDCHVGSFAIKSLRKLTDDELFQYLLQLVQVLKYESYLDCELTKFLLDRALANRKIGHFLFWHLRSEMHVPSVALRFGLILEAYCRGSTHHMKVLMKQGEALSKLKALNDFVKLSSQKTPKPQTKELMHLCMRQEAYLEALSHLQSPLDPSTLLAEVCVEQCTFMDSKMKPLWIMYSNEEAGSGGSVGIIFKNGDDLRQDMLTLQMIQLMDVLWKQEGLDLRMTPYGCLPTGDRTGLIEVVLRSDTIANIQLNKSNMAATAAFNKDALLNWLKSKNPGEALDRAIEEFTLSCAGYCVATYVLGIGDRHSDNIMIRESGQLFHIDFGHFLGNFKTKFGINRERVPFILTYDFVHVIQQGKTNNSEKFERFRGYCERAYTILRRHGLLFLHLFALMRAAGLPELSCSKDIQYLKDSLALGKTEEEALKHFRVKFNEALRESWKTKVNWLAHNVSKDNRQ
PI3Kδ (p110δ/p85α), sequence (P27986 whole entry partner): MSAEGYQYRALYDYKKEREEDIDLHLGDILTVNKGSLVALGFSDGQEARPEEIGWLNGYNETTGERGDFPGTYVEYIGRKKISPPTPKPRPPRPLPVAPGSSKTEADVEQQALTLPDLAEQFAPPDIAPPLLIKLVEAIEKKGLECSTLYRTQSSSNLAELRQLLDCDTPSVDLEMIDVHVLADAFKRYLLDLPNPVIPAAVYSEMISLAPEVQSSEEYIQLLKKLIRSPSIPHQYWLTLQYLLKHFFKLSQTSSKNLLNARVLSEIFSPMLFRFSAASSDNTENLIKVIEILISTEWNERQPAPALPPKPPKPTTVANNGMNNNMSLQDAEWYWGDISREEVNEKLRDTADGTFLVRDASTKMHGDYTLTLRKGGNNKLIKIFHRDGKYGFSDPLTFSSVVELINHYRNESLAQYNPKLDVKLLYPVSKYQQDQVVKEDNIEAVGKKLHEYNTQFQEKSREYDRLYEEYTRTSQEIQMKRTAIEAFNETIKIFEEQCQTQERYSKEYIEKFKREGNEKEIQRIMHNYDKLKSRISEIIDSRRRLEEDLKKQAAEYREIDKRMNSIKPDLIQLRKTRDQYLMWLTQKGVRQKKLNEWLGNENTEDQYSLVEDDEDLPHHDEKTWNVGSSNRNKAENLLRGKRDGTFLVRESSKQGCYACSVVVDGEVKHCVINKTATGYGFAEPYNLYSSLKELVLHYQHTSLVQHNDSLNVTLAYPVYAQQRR

`CCOc1c(C(C)n2nc(C)c3c(N)ncnc32)cc(Cl)c(C#N)c1C1CN(C2CCOC2)C1` (single isomer, unassigned) [Example 227, 4-[1-(4-Amino-3-methyl-1H-pyrazolo[3,4-d]pyrimidin-1-yl)ethyl]-6-chloro-3-ethoxy-2-[1-(tetrahydrofuran-3-yl)azetidin-3-yl]benzonitrile]: the IC50 is no more than 10 nM. As for `CCOc1c(C(C)n2nc(C)c3c(N)ncnc32)cc(Cl)c(C#N)c1C1CN(CC2CCOC2)C1` (single isomer, unassigned) [Example 230, 4-[1-(4-Amino-3-methyl-1H-pyrazolo[3,4-d]pyrimidin-1-yl)ethyl]-6-chloro-3-ethoxy-2-[1-(tetrahydrofuran-3-ylmethyl)azetidin-3-yl]benzonitrile], the figure is no more than 10 nM. As for `CCOc1c(C(C)n2nc(C)c3c(N)ncnc32)cc(Cl)c(C#N)c1C1CN(CC2CCOCC2)C1` (single isomer, unassigned) [Example 232, 4-[1-(4-Amino-3-methyl-1H-pyrazolo[3,4-d]pyrimidin-1-yl)ethyl]-6-chloro-3-ethoxy-2-[1-(tetrahydro-2H-pyran-4-ylmethyl)azetidin-3-yl]benzonitrile], the figure is no more than 10 nM; as for `CCOc1c(C(C)n2nc(C)c3c(N)ncnc32)cc(Cl)c(C#N)c1C1CN(CC(F)(F)F)C1` (single isomer, unassigned) [Example 233, 4-[1-(4-Amino-3-methyl-1H-pyrazolo[3,4-d]pyrimidin-1-yl)ethyl]-6-chloro-3-ethoxy-2-[1-(2,2,2-trifluoroethyl)azetidin-3-yl]benzonitrile], no more than 10 nM; as for `CCOc1c(C(C)n2nc(C)c3c(N)ncnc32)cc(Cl)c(C#N)c1C1CN(C(C)(C)C(=O)NC)C1` (single isomer, unassigned) [Example 240, 2-(3-{3-[1-(4-Amino-3-methyl-1H-pyrazolo[3,4-d]pyrimidin-1-yl)ethyl]-5-chloro-6-cyano-2-ethoxyphenyl}azetidin-1-yl)-N,2-dimethylpropanamide], no more than 10 nM. As for `CCOc1c(C(C)n2nc(C)c3c(N)ncnc32)cc(Cl)c(C#N)c1C1CN(C(C)=O)C1` (single isomer, unassigned) [Example 242, 2-(1-Acetylazetidin-3-yl)-4-[1-(4-amino-3-methyl-1H-pyrazolo[3,4-d]pyrimidin-1-yl)ethyl]-6-chloro-3-ethoxybenzonitrile], the IC50 was no more than 10 nM.

Regarding `CCOc1c(C(C)n2nc(C)c3c(N)ncnc32)cc(Cl)c(C#N)c1C1CN(C(=O)CC)C1` (single isomer, unassigned) [Example 243, 4-[1-(4-Amino-3-methyl-1H-pyrazolo[3,4-d]pyrimidin-1-yl)ethyl]-6-chloro-3-ethoxy-2-(1-propionylazetidin-3-yl)benzonitrile], the IC50 is no more than 10 nM. Under `CCOc1c(C(C)n2nc(C)c3c(N)ncnc32)cc(Cl)c(C#N)c1C1CN(C(=O)C(C)C)C1` (single isomer, unassigned) [Example 244, 4-[1-(4-Amino-3-methyl-1H-pyrazolo[3,4-d]pyrimidin-1-yl)ethyl]-6-chloro-3-ethoxy-2-(1-isobutyrylazetidin-3-yl)benzonitrile] stands no more than 10 nM; under `CCOc1c(C(C)n2nc(C)c3c(N)ncnc32)cc(Cl)c(C#N)c1C1CN(C(=O)C(C)(C)C)C1` (single isomer, unassigned) [Example 245, 4-[1-(4-Amino-3-methyl-1H-pyrazolo[3,4-d]pyrimidin-1-yl)ethyl]-6-chloro-2-[1-(2,2-dimethylpropanoyl)azetidin-3-yl]-3-ethoxybenzonitrile], no more than 10 nM; under `CCOc1c(C(C)n2nc(C)c3c(N)ncnc32)cc(Cl)c(C#N)c1C1CN(C(=O)C2CC2)C1` (single isomer, unassigned) [Example 246, 4-[1-(4-Amino-3-methyl-1H-pyrazolo[3,4-d]pyrimidin-1-yl)ethyl]-6-chloro-2-[1-(cyclopropylcarbonyl)azetidin-3-yl]-3-ethoxybenzonitrile], no more than 10 nM. Regarding `CCOc1c(C(C)n2nc(C)c3c(N)ncnc32)cc(Cl)c(C#N)c1C1CN(S(=O)(=O)C(C)C)C1` (single isomer, unassigned) [Example 250, 4-[1-(4-Amino-3-methyl-1H-pyrazolo[3,4-d]pyrimidin-1-yl)ethyl]-6-chloro-3-ethoxy-2-[1-(isopropylsulfonyl)azetidin-3-yl]benzonitrile], the concentration for half-maximal inhibition (IC50) was no more than 10 nM. Under `CCOc1c(C(C)n2nc(C)c3c(N)ncnc32)cc(Cl)c(C#N)c1C1CN(S(=O)(=O)C2CC2)C1` (single isomer, unassigned) [Example 251, 4-[1-(4-Amino-3-methyl-1H-pyrazolo[3,4-d]pyrimidin-1-yl)ethyl]-6-chloro-2-[1-(cyclopropylsulfonyl)azetidin-3-yl]-3-ethoxybenzonitrile] stands no more than 10 nM; under `CCOc1c(C(C)n2nc(C)c3c(N)ncnc32)cc(Cl)c(C#N)c1C1CN(C(=O)OC)C1` (single isomer, unassigned) [Example 252, Methyl 3-{3-[1-(4-amino-3-methyl-1H-pyrazolo[3,4-d]pyrimidin-1-yl)ethyl]-5-chloro-6-cyano-2-ethoxyphenyl}azetidine-1-carboxylate], no more than 10 nM.

`CCOC(=O)N1CC(c2c(C#N)c(Cl)cc(C(C)n3nc(C)c4c(N)ncnc43)c2OCC)C1` (single isomer, unassigned) [Example 253, Ethyl 3-{3-[1-(4-amino-3-methyl-1H-pyrazolo[3,4-d]pyrimidin-1-yl)ethyl]-5-chloro-6-cyano-2-ethoxyphenyl}azetidine-1-carboxylate]: the half-maximal inhibitory concentration (IC50) is no more than 10 nM. Under `CCOc1c(C(C)n2nc(C)c3c(N)ncnc32)cc(Cl)c(C#N)c1C1CN(C(=O)NC(C)(C)C)C1` (single isomer, unassigned) [Example 255, 3-{3-[1-(4-Amino-3-methyl-1H-pyrazolo[3,4-d]pyrimidin-1-yl)ethyl]-5-chloro-6-cyano-2-ethoxyphenyl}-N-(tert-butyl)azetidine-1-carboxamide] stands no more than 10 nM. Under `CCOc1c(C(C)n2nc(C)c3c(N)ncnc32)cc(Cl)c(C#N)c1C1CN(C(N)=O)C1` (single isomer, unassigned) [Example 256, 3-{3-[1-(4-Amino-3-methyl-1H-pyrazolo[3,4-d]pyrimidin-1-yl)ethyl]-5-chloro-6-cyano-2-ethoxyphenyl}azetidine-1-carboxamide] stands no more than 10 nM; under `CCNC(=O)N1CC(c2c(C#N)c(Cl)cc(C(C)n3nc(C)c4c(N)ncnc43)c2OCC)C1` (single isomer, unassigned) [Example 258, 3-{3-[1-(4-Amino-3-methyl-1H-pyrazolo[3,4-d]pyrimidin-1-yl)ethyl]-5-chloro-6-cyano-2-ethoxyphenyl}-N-ethylazetidine-1-carboxamide], no more than 10 nM. Under `CCOc1c(C(C)n2nc(C)c3c(N)ncnc32)cc(Cl)c(C#N)c1C1CN(C(=O)N(C)C)C1` (single isomer, unassigned) [Example 259, 3-{3-[1-(4-Amino-3-methyl-1H-pyrazolo[3,4-d]pyrimidin-1-yl)ethyl]-5-chloro-6-cyano-2-ethoxyphenyl}-N,N-dimethylazetidine-1-carboxamide] stands no more than 10 nM; under `CCN1CC(c2c(C#N)c(Cl)cc(C(C)n3nc(C)c4c(N)ncnc43)c2OC)C1` (single isomer, unassigned) [Example 263, 4-[1-(4-Amino-3-methyl-1H-pyrazolo[3,4-d]pyrimidin-1-yl)ethyl]-6-chloro-2-(1-ethylazetidin-3-yl)-3-methoxybenzonitrile], no more than 10 nM. With `COc1c(C(C)n2nc(C)c3c(N)ncnc32)cc(Cl)c(C#N)c1C1CN(CC(C)C)C1` (single isomer, unassigned) [Example 265, 4-[1-(4-Amino-3-methyl-1H-pyrazolo[3,4-d]pyrimidin-1-yl)ethyl]-6-chloro-2-(1-isobutylazetidin-3-yl)-3-methoxybenzonitrile], the IC50 was no more than 10 nM. As for `COc1c(C(C)n2nc(C)c3c(N)ncnc32)cc(Cl)c(C#N)c1C1CN(CC2CC2)C1` (single isomer, unassigned) [Example 266, 4-[1-(4-Amino-3-methyl-1H-pyrazolo[3,4-d]pyrimidin-1-yl)ethyl]-6-chloro-2-[1-(cyclopropylmethyl)azetidin-3-yl]-3-methoxybenzonitrile], the figure is no more than 10 nM; as for `COc1c(C(C)n2nc(C)c3c(N)ncnc32)cc(Cl)c(C#N)c1C1CN(C2CCC2)C1` (single isomer, unassigned) [Example 267, 4-[1-(4-Amino-3-methyl-1H-pyrazolo[3,4-d]pyrimidin-1-yl)ethyl]-6-chloro-2-(1-cyclobutylazetidin-3-yl)-3-methoxybenzonitrile], no more than 10 nM. Take `COc1c(C(C)n2nc(C)c3c(N)ncnc32)cc(Cl)c(C#N)c1C1CN(CC2CCOCC2)C1` (single isomer, unassigned) [Example 280, 4-[1-(4-Amino-3-methyl-1H-pyrazolo[3,4-d]pyrimidin-1-yl)ethyl]-6-chloro-3-methoxy-2-[1-(tetrahydro-2H-pyran-4-ylmethyl)azetidin-3-yl]benzonitrile]: the IC50 was no more than 10 nM. As for `CCC(=O)N1CC(c2c(C#N)c(Cl)cc(C(C)n3nc(C)c4c(N)ncnc43)c2OC)C1` (single isomer, unassigned) [Example 282, 4-[1-(4-Amino-3-methyl-1H-pyrazolo[3,4-d]pyrimidin-1-yl)ethyl]-6-chloro-3-methoxy-2-(1-propionylazetidin-3-yl)benzonitrile], the figure is no more than 10 nM. Under `COc1c(C(C)n2nc(C)c3c(N)ncnc32)cc(Cl)c(C#N)c1C1CN(C(=O)C(C)C)C1` (single isomer, unassigned) [Example 283, 4-[1-(4-Amino-3-methyl-1H-pyrazolo[3,4-d]pyrimidin-1-yl)ethyl]-6-chloro-2-(1-isobutyrylazetidin-3-yl)-3-methoxybenzonitrile] stands no more than 10 nM.
